SMILES strings stand for the structures.

The nature of series [1]: physchem. Particulars: buffer, pH 7.4.
The nature of series [2]: in vitro. As to conditions: dog, MDCK-MDR1, Papp.
The nature of series [3]: in vivo. Particulars: Beagle, dog, iv, 1 mg/kg.
A short description of series [4]: in vivo. As to conditions: Beagle, dog, iv, 1 mg/kg. The source holds these as a separate data set.
The nature of series [5]: in vivo. As to conditions: Beagle, dog, po, 10 mg/kg.
Series [6] can be described thus: in vivo. Particulars: Beagle, dog, po, 10 mg/kg. The source holds these as a separate data set.
Series [7] in a line: in vivo. As to conditions: Beagle, dog, po, 10 mg/kg. This is another data set of the same source.
A short description of series [8]: in vivo. As to conditions: Beagle, dog, po, 10 mg/kg. This is another data set of the same source.

For the compound `COc1cc(CN2[C@H]3c4ccccc4OC[C@H]3CN2C(=O)C2CCCCC2)cc(OC)c1`, the logD in series [1] worked out at 3.8. The Papp A→B in series [2] turned out to be 17 ×10⁻⁶ cm/s.
Compound `Cc1ccc(-n2nccn2)c(C(=O)N2CCCN2Cc2ccn(-c3ccccc3)n2)c1` gave a Vd in series [3] of 0.8 L/kg. For the same compound, the clearance in series [4] was 17 mL/min/kg. This compound returned a bioavailability in series [5] of 10%. Further, the Cmax in series [6] is 287 ng/mL. This compound showed an AUC in series [7] of 1040 ng·h/mL. The Tmax in series [8] stood at 3.55 h.
`O=C(C1CCCCC1)N1C[C@@H]2COc3ccccc3[C@@H]2N1Cc1cccc(-c2ncon2)c1` showed a logD in series [1] greater than 4.1.
`Cn1ccc(C(=O)N2C[C@@H]3COc4cc(F)ccc4[C@@H]3N2Cc2cccc(-c3ncccn3)c2)n1` (racemic): the logD in series [1] is 2.8. Moreover, in series [2], the Papp A→B was determined as 0.78 ×10⁻⁶ cm/s.
For `Cn1ccc(C(=O)N2C[C@@H]3CCc4cc(F)ccc4[C@@H]3N2Cc2cccc(-c3ncccn3)c2)n1` (racemic), in that order: 3.3 and 9.3 ×10⁻⁶ cm/s.

As a reminder, the logD is lipophilicity at a set pH, counting ionised and neutral species. A low value points to lower lipophilicity. The term Papp A→B denotes the apparent permeability from the apical to the basolateral side of a cell layer. Read a high Papp A→B as fast passage. The term Vd denotes a proportionality between amount in the body and measured concentration, not a real space. A high value points to wide distribution into tissue. In general, clearance refers to a measure of how efficiently the substance is removed, as volume per time. Higher therefore signals a high capacity for elimination. A word on the bioavailability: it is dose-corrected exposure relative to a reference, in per cent. High values mean good availability, low ones poor availability. As a reminder, the Cmax is the peak of the concentration-time curve. As usually defined, the AUC is the area under the concentration-time curve, a measure of exposure. One may read the Tmax as the time from dosing to the highest level.

The record behind these values is ChEMBL document CHEMBL5614430, “Discovery, synthesis and SAR of 2-acyl-1-biarylmethyl pyrazolidines, dual orexin receptor antagonists designed as fast and short-acting sleeping drugs” (Bioorg Med Chem, 2024).
